Measured values from patent US20120277184A1 (priority 2004, published 2012).
Like-named read-outs stand apart in the source and are kept apart here.

Legend:
LeTx = LeTx (Bacillus anthracis, UniProt P13423); conditions: raw 264.7 cells
α-HL [1] = molecular target: T1, α-HL (Staphylococcus aureus, UniProt P09616)
α-HL [2] = molecular target: T1, α-HL; assay type: biochemical; conditions: read-out: Inhibition of trans-membrane conductance IC50
ε-toxin = ε-toxin (Clostridium perfringens, UniProt Q02307)
[3] = rat, in vivo; cited from earlier work

T1 sequence (P09616 27-319 limits assumed): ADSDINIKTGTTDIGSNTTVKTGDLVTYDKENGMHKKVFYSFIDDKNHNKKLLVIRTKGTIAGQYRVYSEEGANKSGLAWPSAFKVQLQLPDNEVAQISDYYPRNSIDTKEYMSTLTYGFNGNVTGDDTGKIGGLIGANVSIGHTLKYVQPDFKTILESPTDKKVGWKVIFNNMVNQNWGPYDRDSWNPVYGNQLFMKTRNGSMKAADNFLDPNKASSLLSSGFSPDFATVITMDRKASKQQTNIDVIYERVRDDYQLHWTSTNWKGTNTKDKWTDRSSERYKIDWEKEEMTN
Sequence of ε-toxin (Q02307 46-306 limits assumed): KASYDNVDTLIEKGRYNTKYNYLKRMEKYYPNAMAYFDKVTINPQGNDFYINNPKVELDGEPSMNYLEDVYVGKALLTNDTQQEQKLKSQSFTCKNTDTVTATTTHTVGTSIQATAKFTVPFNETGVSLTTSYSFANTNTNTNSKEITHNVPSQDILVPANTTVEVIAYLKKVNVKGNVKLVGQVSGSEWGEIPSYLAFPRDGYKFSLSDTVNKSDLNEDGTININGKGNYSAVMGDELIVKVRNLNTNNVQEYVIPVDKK
Sequence of LeTx (P13423 197-764 limits assumed): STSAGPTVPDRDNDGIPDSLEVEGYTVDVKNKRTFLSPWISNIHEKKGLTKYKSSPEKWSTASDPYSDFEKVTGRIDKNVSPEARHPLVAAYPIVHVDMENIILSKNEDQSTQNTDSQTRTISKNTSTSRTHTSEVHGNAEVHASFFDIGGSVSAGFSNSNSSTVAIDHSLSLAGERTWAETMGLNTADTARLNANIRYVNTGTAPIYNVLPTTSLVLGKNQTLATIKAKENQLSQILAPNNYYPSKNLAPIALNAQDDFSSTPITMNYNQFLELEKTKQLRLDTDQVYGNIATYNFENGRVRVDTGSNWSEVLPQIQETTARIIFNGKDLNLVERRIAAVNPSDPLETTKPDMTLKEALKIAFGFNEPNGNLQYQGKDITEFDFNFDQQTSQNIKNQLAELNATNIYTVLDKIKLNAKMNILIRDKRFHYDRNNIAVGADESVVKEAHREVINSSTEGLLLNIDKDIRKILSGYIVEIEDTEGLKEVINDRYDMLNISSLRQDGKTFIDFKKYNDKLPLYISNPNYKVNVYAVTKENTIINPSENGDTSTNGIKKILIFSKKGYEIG

Cc1ccc(CNC[C@H]2O[C@@H]3O[C@H]4[C@H](O)[C@@H](O)[C@@H](O[C@H]5[C@H](O)[C@@H](O)[C@@H](O[C@H]6[C@H](O)[C@@H](O)[C@@H](O[C@H]7[C@H](O)[C@@H](O)[C@@H](O[C@H]8[C@H](O)[C@@H](O)[C@@H](O[C@H]9[C@H](O)[C@@H](O)[C@@H](O[C@H]2[C@H](O)[C@H]3O)O[C@@H]9CNCc2ccc(C)cc2)O[C@@H]8CNCc2ccc(C)cc2)O[C@@H]7CNCc2ccc(C)cc2)O[C@@H]6CNCc2ccc(C)cc2)O[C@@H]5CNCc2ccc(C)cc2)O[C@@H]4CNCc2ccc(C)cc2)cc1 [Compound 8]
IC50 (LeTx): 0.5 ± 0.2 µM

O[C@@H]1[C@@H](O)[C@H]2O[C@H]3[C@H](O)[C@@H](O)[C@@H](O[C@H]4[C@H](O)[C@@H](O)[C@@H](O[C@H]5[C@H](O)[C@@H](O)[C@@H](O[C@H]6[C@H](O)[C@@H](O)[C@@H](O[C@H]7[C@H](O)[C@@H](O)[C@@H](O[C@H]8[C@H](O)[C@@H](O)[C@@H](O[C@@H]1[C@@H](CNCc1ccc(Cl)cc1)O2)O[C@@H]8CNCc1ccc(Cl)cc1)O[C@@H]7CNCc1ccc(Cl)cc1)O[C@@H]6CNCc1ccc(Cl)cc1)O[C@@H]5CNCc1ccc(Cl)cc1)O[C@@H]4CNCc1ccc(Cl)cc1)O[C@@H]3CNCc1ccc(Cl)cc1 [Compound 9]
IC50 (LeTx): 5.4 ± 0.8 µM

O[C@@H]1[C@@H](O)[C@H]2O[C@H]3[C@H](O)[C@@H](O)[C@@H](O[C@H]4[C@H](O)[C@@H](O)[C@@H](O[C@H]5[C@H](O)[C@@H](O)[C@@H](O[C@H]6[C@H](O)[C@@H](O)[C@@H](O[C@H]7[C@H](O)[C@@H](O)[C@@H](O[C@H]8[C@H](O)[C@@H](O)[C@@H](O[C@@H]1[C@@H](CNCc1ccc(Br)cc1)O2)O[C@@H]8CNCc1ccc(Br)cc1)O[C@@H]7CNCc1ccc(Br)cc1)O[C@@H]6CNCc1ccc(Br)cc1)O[C@@H]5CNCc1ccc(Br)cc1)O[C@@H]4CNCc1ccc(Br)cc1)O[C@@H]3CNCc1ccc(Br)cc1 [Compound 10]
Inhibition of α-HL hemolytic activity (in words) (α-HL [1]): did not display any activity | IC50 (α-HL [1]; erythrocytes): > 100 µM

CC(C)(C)OC(=O)NC(CCCN)C(=O)NCC1OC2OC3C(CNC(=O)C(CCCN)NC(=O)OC(C)(C)C)OC(OC4C(CNC(=O)C(CCCN)NC(=O)OC(C)(C)C)OC(OC5C(CNC(=O)C(CCCN)NC(=O)OC(C)(C)C)OC(OC6C(CNC(=O)C(CCCN)NC(=O)OC(C)(C)C)OC(OC7C(CNC(=O)C(CCCN)NC(=O)OC(C)(C)C)OC(OC8C(CNC(=O)C(CCCN)NC(=O)OC(C)(C)C)OC(OC1C(O)C2O)C(O)C8O)C(O)C7O)C(O)C6O)C(O)C5O)C(O)C4O)C(O)C3O (stereo not shown) [Compound 11]
IC50 (α-HL [2]): ~0.05 µM | IC50 (α-HL [1]): 3.3 µM | Inhibition of α-HL hemolytic activity (in words) (α-HL [1]): inhibits α-HL

CC(C)(C)OC(=O)NC(CCCN)C(=O)NCC1OC2OC3C(CNC(=O)C(CCCN)NC(=O)OC(C)(C)C)OC(OC4C(CNC(=O)C(CCCN)NC(=O)OC(C)(C)C)OC(OC5C(CNC(=O)C(CCCN)NC(=O)OC(C)(C)C)OC(OC6C(CNC(=O)C(CCCN)NC(=O)OC(C)(C)C)OC(OC7C(CNC(=O)C(CCCN)NC(=O)OC(C)(C)C)OC(OC8C(CNC(=O)C(CCCN)NC(=O)OC(C)(C)C)OC(OC9C(CNC(=O)C(CCCN)NC(=O)OC(C)(C)C)OC(OC1C(O)C2O)C(O)C9O)C(O)C8O)C(O)C7O)C(O)C6O)C(O)C5O)C(O)C4O)C(O)C3O (stereo not shown) [Compound 12]
IC50 (α-HL [1]): > 100 µM

Cc1ccc(CNCC2OC3OC4C(CNCc5ccc(C)cc5)OC(OC5C(CNCc6ccc(C)cc6)OC(OC6C(CNCc7ccc(C)cc7)OC(OC7C(CNCc8ccc(C)cc8)OC(OC8C(CNCc9ccc(C)cc9)OC(OC9C(CNCc%10ccc(C)cc%10)OC(OC2C(O)C3O)C(O)C9O)C(O)C8O)C(O)C7O)C(O)C6O)C(O)C5O)C(O)C4O)cc1 (stereo not shown) [Compound 5105]
IC50 (ε-toxin): 20 ± 10 µM | Inhibition of ε-toxin cytotoxicity / protection of MDCK cells (in words) (ε-toxin): protection

OC1C2OC(CNCc3ccc(Cl)cc3)C(OC3OC(CNCc4ccc(Cl)cc4)C(OC4OC(CNCc5ccc(Cl)cc5)C(OC5OC(CNCc6ccc(Cl)cc6)C(OC6OC(CNCc7ccc(Cl)cc7)C(OC7OC(CNCc8ccc(Cl)cc8)C(OC8OC(CNCc9ccc(Cl)cc9)C(O2)C(O)C8O)C(O)C7O)C(O)C6O)C(O)C5O)C(O)C4O)C(O)C3O)C1O (stereo not shown) [Compound 5130]
IC50 (ε-toxin): 21 ± 9 µM

OC1C2OC(CNCc3ccc(Br)cc3)C(OC3OC(CNCc4ccc(Br)cc4)C(OC4OC(CNCc5ccc(Br)cc5)C(OC5OC(CNCc6ccc(Br)cc6)C(OC6OC(CNCc7ccc(Br)cc7)C(OC7OC(CNCc8ccc(Br)cc8)C(OC8OC(CNCc9ccc(Br)cc9)C(O2)C(O)C8O)C(O)C7O)C(O)C6O)C(O)C5O)C(O)C4O)C(O)C3O)C1O (stereo not shown) [Compound 5137]
IC50 (ε-toxin): 20 ± 1 µM

β-cyclodextrin [β-CD]
Bioavailability [3]: 0.1-4%
